Laboratory results from patent publication US20220380383A1, “NEUROPROTECTIVE PDI MODULATING SMALL MOLECULES AND METHODS OF USE THEREOF” (THE TRUSTEES OF COLUMBIA UNIVERSITY IN THE CITY OF NEW YORK, priority 2018, published 2022).
In brackets after ≈: the same amount, converted by molar mass. Read-outs that look alike come from different tables or passages of the source.

How the values were obtained:
[1] = target: T1, human catalytic PDI A1 a domain (PDIa) (Homo sapiens, UniProt P07237); assay: Isothermal titration calorimetry (ITC) binding to PDIa
T1 construct: made in house; host or cells: Escherichia coli BL21-Gold (DE3)
T1 sequence (P07237 18-134): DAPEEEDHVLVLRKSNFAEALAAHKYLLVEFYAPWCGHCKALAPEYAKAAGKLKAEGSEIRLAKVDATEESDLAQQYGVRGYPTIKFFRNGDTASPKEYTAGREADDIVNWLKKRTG
Protocol: All ITC experiments were carried out at 25° C. on MicoCal Auto-ITC200 system (GE Healthcare). […] ITC titration experiments were carried out at 25° C. with 19 injections, 2 μl per injection, and 180 seconds between each injection. The reference cell power was set to 5 μcal/sec. A control experiment was performed for each compound, where each compound was titrated into buffer to account for heat released due to dilution. This background was subtracted from test data before a final dissociation constant was obtained. […] Gibbs free energy, ΔG, was calculated from equation ΔG=ΔH-TΔS. All other parameters, Ka, n, ΔH, ΔS, were determined directly from the titration data.
LOC14 analogs were designed and synthesized as described in the synthetic schemes. The analogs were evaluated for their binding to PDIa using isothermal titration calorimetry (ITC) (results of certain compounds are shown in FIGS. 1A-1E). Next, the analogs were tested for their ability to rescue PC12 cells from mHTT^Q103 induced cell death in a dose-dependent manner (results of certain compounds are shown in FIG. 2).

[2] = tested on: PC12 mHTTQ103 cells; assay: Rescue of PC12 cells from mHTTQ103-induced cell death; format: cell-based, rat; settings: for EC50: Rattus norvegicus, PC-12
[3] = Solubility (stock solvent)
[4] = N/A = not active, read-out: ITC KD
[5] = Tables 5-13, NA = not active, read-out: Kd
[6] = rescue from mHTTQ103 induced cell death
[7] = Tables 5-13, solvent not given (DMSO in Table 1)
[8] = Tables 5-13, PC12 cells, read-out: EC50
[9] = rescue from mHTTQ103 induced cell death, read-out: PC12 cells EC50

SMILES	Kd [1, 4]	Kd [1, 5]	Max Viability (%) ([2]; Tables 5-13, PC12 cells)	PC12 cells EC50 [2, 6]	PC12 cells Max % Viability [2, 6]	Solubility [3]	Solubility [3, 7]	ITC KD ([1]; N/A = not active)	EC50 [2, 8]	Kd ([1]; Tables 6, 11, 12, read-out: Kd (nM), first value of two-site binding)	Kd ([1]; Tables 6, 11, 12, read-out: Kd (nM), second value of two-site binding)	EC50 [2, 9]	Kd ([1]; ITC assay, read-out: KD)
O=c1c2cccnc2sn1CCN1CCOCC1 [LC-55]	20.1 nM	20 nM	13%	Not Active	13.20%	100 mM in DMSO	100 mM (≈ 26.5 mg/mL)						
CC(C)(C)OC(=O)N1CCC(COc2nsc3ccccc23)CC1 [LC-16]			30%		30.24%			KD = N/A irreversible or not active	> 50000 nM				
O=c1c2cccnc2sn1CCN1CCCCC1 [LC-54]	< 20 nM	≤ 20 nM	11%	Not Active	10.67%	100 mM in DMSO	100 mM (≈ 26.3 mg/mL)						
O=C(NCc1ccc(Br)cc1)c1ccccc1S [LC-20]			42%		42.11%	100 mM in DMSO	100 mM (≈ 32.2 mg/mL)	KD = N/A irreversible or not active	> 50000 nM				
O=c1c2ccccc2sn1Cc1ccc(Br)cc1 [LC-26]			38%		37.88%	100 mM in DMSO	100 mM (≈ 32 mg/mL)	KD = N/A irreversible or not active	778 nM				
O=C(Nc1ccc(Oc2ccccc2)cc1)c1ccccc1S [LC-33]			54%		54.43%	100 mM in DMSO	100 mM (≈ 32.1 mg/mL)	KD = N/A irreversible or not active	2940 nM				
O=C(C1CC1)N1CCN(Cn2oc3ccccc3c2=O)CC1 [Oxy- LOC14]				Not Active	8.16%	100 mM in DMSO							
O=c1c2ccccc2sn1-c1ccc(N2CCOCC2)cc1 [LC-27]			28%		28.37%			KD = N/A irreversible or not active	1830 nM				
O=c1c2ccccc2sn1CN1CCN(c2ncccn2)CC1 [LC-12]		140 ± 29 nM	68%		68.35%	100 mM in DMSO	100 mM (≈ 32.7 mg/mL)		416 nM				
O=c1c2ccccc2sn1-c1ccc(Cc2ccccc2)cc1 [LC-25]			37%		36.83%	100 mM in DMSO	100 mM (≈ 31.7 mg/mL)	KD = N/A irreversible or not active	1590 nM				
O=c1c2ccccc2sn1Cc1ccccc1 [LC-5]						100 mM in DMSO	100 mM (≈ 24.1 mg/mL)			43 nM	2270 nM		
CC(C)(C)OC(=O)NC1CCN(Cn2sc3ccccc3c2=O)CC1 [LC-8]		94 nM	68%		68.37%				384 nM			384 nM	
O=c1c2ccccc2sn1CN1CCN(Cn2sc3ccccc3c2=O)CC1 [LC-9]	12.7 nM		66%		66.07%	5 mM in DMSO	5 mM (≈ 2.06 mg/mL)					173 nM	13 nM
CN1CCN(Cn2sc3ccccc3c2=O)CC1 [LC-2]		134 ± 20 nM	63%		63.29%	100 mM in DMSO	100 mM (≈ 26.3 mg/mL)		415 nM				
O=c1c2ccccc2sn1CN1CCSCC1 [LC-3]	97.1 nM		63%		63.05%		100 mM (≈ 26.6 mg/mL)		463 nM				
CC(C)(C)OC(=O)N1CCN(Cn2sc3ccccc3c2=O)CC1 [LC-10]		123 ± 34 nM	72%		71.82%	100 mM in DMSO	100 mM (≈ 34.9 mg/mL)		581 nM			561 nM	
C[C@H](c1ccccc1)n1sc2ncccc2c1=O [LC-58, (R)-2-(1-phenylethyl)isothiazolo[5,4-b]pyridin-3(2H)-one]	0.3 nM	0.3 nM	14%	Not Active	13.62%	100 mM in DMSO	100 mM (≈ 25.6 mg/mL)						
